Tests used:
Settings in all cases: 72 h
Caco-2 [1] = assay: relative viability EC50 (midpoint between 100% and the lowest measured viability); higher = less toxic
HepG2 [2] = assay: as above
Vero E6 [3] = assay: as above
U2OS [4] = assay: as above
Calu-3 [5] = assay: as above
Caco-2 [6] = assay: drug sensitivity score (DSS) for viability; higher = more toxic; extreme values may be limits of the assay
HepG2 [7] = assay: as above
Vero E6 [8] = assay: as above
U2OS [9] = assay: as above
Calu-3 [10] = assay: as above
Caco-2 [11] = assay: cell viability relative to DMSO; higher = less toxic
HepG2 [12] = assay: as above
Vero E6 [13] = assay: as above
U2OS [14] = assay: as above
Calu-3 [15] = assay: as above

What does the source list for `O=C(O)c1ccccc1` [benzoic-acid]?
relative viability EC50 (Caco-2 [1]): > 10 µM; relative viability EC50 (HepG2 [2]): > 10 µM; relative viability EC50 (Vero E6 [3]): > 10 µM; relative viability EC50 (U2OS [4]): > 10 µM; relative viability EC50 (Calu-3 [5]): > 10 µM; drug sensitivity score (Caco-2 [6]): 0; drug sensitivity score (HepG2 [7]): 0; drug sensitivity score (Vero E6 [8]): 0; drug sensitivity score (U2OS [9]): 0; drug sensitivity score (Calu-3 [10]): 0; cell viability (Caco-2 [11]; 1 nM): 99%; cell viability (Caco-2 [11]; 10 nM): 101%; cell viability (Caco-2 [11]; 100 nM): 95.9%; cell viability (Caco-2 [11]; 1000 nM): 98.7%; cell viability (Caco-2 [11]; 10000 nM): 98.7%; cell viability (HepG2 [12]; 1 nM): 101%; cell viability (HepG2 [12]; 10 nM): 95.6%; cell viability (HepG2 [12]; 100 nM): 104%; cell viability (HepG2 [12]; 1000 nM): 92.4%; cell viability (HepG2 [12]; 10000 nM): 96.3%; cell viability (Vero E6 [13]; 1 nM): 97.1%; cell viability (Vero E6 [13]; 10 nM): 97.6%; cell viability (Vero E6 [13]; 100 nM): 100%; cell viability (Vero E6 [13]; 1000 nM): 97.7%; cell viability (Vero E6 [13]; 10000 nM): 102%; cell viability (U2OS [14]; 1 nM): 98.9%; cell viability (U2OS [14]; 10 nM): 102%; cell viability (U2OS [14]; 100 nM): 99.1%; cell viability (U2OS [14]; 1000 nM): 98.2%; cell viability (U2OS [14]; 10000 nM): 95.9%; cell viability (Calu-3 [15]; 1 nM): 99.4%; cell viability (Calu-3 [15]; 10 nM): 101%; cell viability (Calu-3 [15]; 100 nM): 96.8%; cell viability (Calu-3 [15]; 1000 nM): 99.2%; cell viability (Calu-3 [15]; 10000 nM): 92.6%

Which “relative viability EC50” value (Caco-2 [1]) does the source give for `C[N+](C)(CCOc1ccccc1)Cc1ccccc1` [bephenium-hydroxynaphthoate] here?
The value was > 10 µM.

And the “relative viability EC50” value (HepG2 [2])?
The value was > 10 µM.

What about the “relative viability EC50” value (Vero E6 [3]) of the same compound?
Its value is > 10 µM.

What about the “relative viability EC50” value (U2OS [4]) of the same compound?
Its value is > 10 µM.

And the “relative viability EC50” value (Calu-3 [5])?
Its value is > 10 µM.

What about the drug sensitivity score (Caco-2 [6]) of the same compound?
Its drug sensitivity score is 0.

And the drug sensitivity score (HepG2 [7])?
The drug sensitivity score was 0.

And the drug sensitivity score (Vero E6 [8])?
Its drug sensitivity score is 0.

What about the drug sensitivity score (U2OS [9]) of the same compound?
Its drug sensitivity score is 0.

And the drug sensitivity score (Calu-3 [10])?
Its drug sensitivity score is 0.

What about the cell viability (Caco-2 [11]; 1 nM) of the same compound?
Its cell viability is 96.1%.

What about the cell viability (Caco-2 [11]; 10 nM) of the same compound?
Its cell viability is 99.4%.

And the cell viability (Caco-2 [11]; 100 nM)?
The cell viability was 106%.

And the cell viability (Caco-2 [11]; 1000 nM)?
The cell viability was 102%.

What about the cell viability (Caco-2 [11]; 10000 nM) of the same compound?
The cell viability was 102%.

What about the cell viability (HepG2 [12]; 1 nM) of the same compound?
The cell viability was 100%.

And the cell viability (HepG2 [12]; 10 nM)?
Its cell viability is 98.4%.

What about the cell viability (HepG2 [12]; 100 nM) of the same compound?
The cell viability was 92.3%.

And the cell viability (HepG2 [12]; 1000 nM)?
Its cell viability is 96.8%.

And the cell viability (HepG2 [12]; 10000 nM)?
The cell viability was 100%.

And the cell viability (Vero E6 [13]; 1 nM)?
The cell viability was 98.2%.

What about the cell viability (Vero E6 [13]; 10 nM) of the same compound?
Its cell viability is 96.9%.

What about the cell viability (Vero E6 [13]; 100 nM) of the same compound?
The cell viability was 94.8%.

What about the cell viability (Vero E6 [13]; 1000 nM) of the same compound?
Its cell viability is 92.6%.

And the cell viability (Vero E6 [13]; 10000 nM)?
Its cell viability is 103%.

What about the cell viability (U2OS [14]; 1 nM) of the same compound?
Its cell viability is 93.7%.

What about the cell viability (U2OS [14]; 10 nM) of the same compound?
The cell viability was 99.4%.

What about the cell viability (U2OS [14]; 100 nM) of the same compound?
Its cell viability is 93.5%.

What about the cell viability (U2OS [14]; 1000 nM) of the same compound?
Its cell viability is 101%.

What about the cell viability (U2OS [14]; 10000 nM) of the same compound?
The cell viability was 102%.

What about the cell viability (Calu-3 [15]; 1 nM) of the same compound?
The cell viability was 102%.

What about the cell viability (Calu-3 [15]; 10 nM) of the same compound?
Its cell viability is 103%.

What about the cell viability (Calu-3 [15]; 100 nM) of the same compound?
Its cell viability is 90%.

And the cell viability (Calu-3 [15]; 1000 nM)?
The cell viability was 98%.

What about the cell viability (Calu-3 [15]; 10000 nM) of the same compound?
Its cell viability is 102%.

Which “relative viability EC50” value (Caco-2 [1]) does the source give for `Oc1cccc(Nc2ccc(Nc3cccc(O)c3)nn2)c1` [beta-amyloid-synthesis-inhibitor] here?
Its value is > 10 µM.

What about the “relative viability EC50” value (HepG2 [2]) of the same compound?
The value was > 10 µM.

What about the “relative viability EC50” value (Vero E6 [3]) of the same compound?
The value was > 10 µM.

And the “relative viability EC50” value (U2OS [4])?
Its value is > 10 µM.

What about the “relative viability EC50” value (Calu-3 [5]) of the same compound?
The value was > 10 µM.

What about the drug sensitivity score (Caco-2 [6]) of the same compound?
The drug sensitivity score was 0.

And the drug sensitivity score (HepG2 [7])?
The drug sensitivity score was 0.

And the drug sensitivity score (Vero E6 [8])?
The drug sensitivity score was 0.

What about the drug sensitivity score (U2OS [9]) of the same compound?
Its drug sensitivity score is 0.

What about the drug sensitivity score (Calu-3 [10]) of the same compound?
Its drug sensitivity score is 0.

What about the cell viability (Caco-2 [11]; 1 nM) of the same compound?
Its cell viability is 101%.

What about the cell viability (Caco-2 [11]; 10 nM) of the same compound?
Its cell viability is 90.4%.

What about the cell viability (Caco-2 [11]; 100 nM) of the same compound?
The cell viability was 109%.

And the cell viability (Caco-2 [11]; 1000 nM)?
The cell viability was 101%.

What about the cell viability (Caco-2 [11]; 10000 nM) of the same compound?
Its cell viability is 94.4%.

And the cell viability (HepG2 [12]; 1 nM)?
The cell viability was 102%.

What about the cell viability (HepG2 [12]; 10 nM) of the same compound?
The cell viability was 101%.

What about the cell viability (HepG2 [12]; 100 nM) of the same compound?
Its cell viability is 97.9%.

And the cell viability (HepG2 [12]; 1000 nM)?
Its cell viability is 98.6%.

And the cell viability (HepG2 [12]; 10000 nM)?
Its cell viability is 104%.

And the cell viability (Vero E6 [13]; 1 nM)?
Its cell viability is 92.4%.

And the cell viability (Vero E6 [13]; 10 nM)?
The cell viability was 97.3%.

What about the cell viability (Vero E6 [13]; 100 nM) of the same compound?
Its cell viability is 93.8%.

And the cell viability (Vero E6 [13]; 1000 nM)?
The cell viability was 98%.

What about the cell viability (Vero E6 [13]; 10000 nM) of the same compound?
Its cell viability is 95.5%.

What about the cell viability (U2OS [14]; 1 nM) of the same compound?
The cell viability was 106%.

What about the cell viability (U2OS [14]; 10 nM) of the same compound?
Its cell viability is 97.1%.

And the cell viability (U2OS [14]; 100 nM)?
The cell viability was 100%.

And the cell viability (U2OS [14]; 1000 nM)?
The cell viability was 100%.

What about the cell viability (U2OS [14]; 10000 nM) of the same compound?
The cell viability was 106%.

What about the cell viability (Calu-3 [15]; 1 nM) of the same compound?
The cell viability was 115%.

And the cell viability (Calu-3 [15]; 10 nM)?
The cell viability was 94.9%.

What about the cell viability (Calu-3 [15]; 100 nM) of the same compound?
The cell viability was 98.1%.

What about the cell viability (Calu-3 [15]; 1000 nM) of the same compound?
Its cell viability is 106%.

And the cell viability (Calu-3 [15]; 10000 nM)?
The cell viability was 102%.

Which “relative viability EC50” value (Caco-2 [1]) does the source give for `CC1=C(/C=C/C(C)=C/C=C/C(C)=C/C=C/C=C(C)/C=C/C=C(C)/C=C/C2=C(C)CCCC2(C)C)C(C)(C)CCC1` [beta-carotene] here?
Its value is > 10 µM.

And the “relative viability EC50” value (HepG2 [2])?
Its value is > 10 µM.

And the “relative viability EC50” value (Vero E6 [3])?
Its value is > 10 µM.

What about the “relative viability EC50” value (U2OS [4]) of the same compound?
Its value is > 10 µM.

And the “relative viability EC50” value (Calu-3 [5])?
The value was > 10 µM.

What about the drug sensitivity score (Caco-2 [6]) of the same compound?
The drug sensitivity score was 0.

And the drug sensitivity score (HepG2 [7])?
Its drug sensitivity score is 0.

And the drug sensitivity score (Vero E6 [8])?
Its drug sensitivity score is 0.

And the drug sensitivity score (U2OS [9])?
The drug sensitivity score was 0.

What about the drug sensitivity score (Calu-3 [10]) of the same compound?
Its drug sensitivity score is 0.

What about the cell viability (Caco-2 [11]; 1 nM) of the same compound?
The cell viability was 89.3%.

What about the cell viability (Caco-2 [11]; 10 nM) of the same compound?
The cell viability was 99.3%.

What about the cell viability (Caco-2 [11]; 100 nM) of the same compound?
The cell viability was 104%.

What about the cell viability (Caco-2 [11]; 1000 nM) of the same compound?
Its cell viability is 92.7%.

What about the cell viability (Caco-2 [11]; 10000 nM) of the same compound?
The cell viability was 98.5%.

And the cell viability (HepG2 [12]; 1 nM)?
Its cell viability is 96.1%.

And the cell viability (HepG2 [12]; 10 nM)?
Its cell viability is 103%.

And the cell viability (HepG2 [12]; 100 nM)?
Its cell viability is 94.6%.

What about the cell viability (HepG2 [12]; 1000 nM) of the same compound?
Its cell viability is 110%.

What about the cell viability (HepG2 [12]; 10000 nM) of the same compound?
Its cell viability is 106%.

And the cell viability (Vero E6 [13]; 1 nM)?
The cell viability was 93.8%.

What about the cell viability (Vero E6 [13]; 10 nM) of the same compound?
Its cell viability is 102%.

What about the cell viability (Vero E6 [13]; 100 nM) of the same compound?
The cell viability was 96.3%.

And the cell viability (Vero E6 [13]; 1000 nM)?
The cell viability was 104%.

What about the cell viability (Vero E6 [13]; 10000 nM) of the same compound?
Its cell viability is 108%.

What about the cell viability (U2OS [14]; 1 nM) of the same compound?
The cell viability was 92.6%.

And the cell viability (U2OS [14]; 10 nM)?
Its cell viability is 95.1%.

And the cell viability (U2OS [14]; 100 nM)?
Its cell viability is 102%.

And the cell viability (U2OS [14]; 1000 nM)?
The cell viability was 93.9%.

What about the cell viability (U2OS [14]; 10000 nM) of the same compound?
Its cell viability is 101%.

And the cell viability (Calu-3 [15]; 1 nM)?
Its cell viability is 98.9%.

And the cell viability (Calu-3 [15]; 10 nM)?
Its cell viability is 104%.

What about the cell viability (Calu-3 [15]; 100 nM) of the same compound?
The cell viability was 104%.

And the cell viability (Calu-3 [15]; 1000 nM)?
The cell viability was 97.4%.

What about the cell viability (Calu-3 [15]; 10000 nM) of the same compound?
The cell viability was 105%.
